From patent publication US20030153808A1, “Implantation rate using ff-mas” (priority 2000, published 2003)

Columns and labels:
human oocytes = details: Grøndahl et al. 1999; cited from earlier work
adult, cycling rat = experiment: Embryo implantation in the cycling rat after subcutaneous treatment; format: in vivo; details: 20 mg/kg s.c. once daily d1-d8, mating d7, uteri checked d16, female Wistar rats, 5 animals/group; vehicle 10 ± 4
Experimental: A total of 15 sexually mature female Wistar rats with a body weight of 200-220 g and a 4-day cycle were used. The animals were divided in one control group (group 1) and two treatment groups (group 2-3) consisting of 5 animals/group, respectively.
Starting in metestrus (d1) animals were treated for eight days (d1-d8), once daily, subcutaneously with the test compounds (treatment groups) or vehicle (control group), respectively. At day 7, at proestrus, animals were mated. The success of mating was checked by the presence of sperms in the vagina at d8. At d16 animals were sacrificed. Uteri were removed and checked for the presence of implantation sides. In each animal the number of implantation sides were determined.
Control group 1 received vehicle alone [(ethanol/arachisoil, 1+9 (v/v)].
Group 2 received 20 mg/kg FF-MAS, prepared in an ethanol/arachisoil vehicle.
Group 2 received 20 mg/kg FF-MAS-succinate, prepared in an ethanol/arachisoil vehicle.

mouse oocytes [1] = details: added to the culture medium; Hegele-Hartung et al. 1998; cited from earlier work
mouse oocytes [2] = experiment: Implantation rate after IVF: mouse oocyte cultivation with FF-MAS, in vitro-fertilization, tubal retransfer to foster mothers; format: cell-based
Experimental: Oocytes are obtained by puncture using a fine needle from the ovaries of mice primed with PMSG (pregnant mare serum gonadotrophin). The oocytes are cultivated for approx. 20 hours in a defined hypoxanthine-containing culture medium (Hx medium, see above) with FF-MAS (10 μM) (37° C.). The control oocytes are cultivated in defined culture medium without FF-MAS for the same period of time. Both the FF-MAS-oocytes and the control oocytes have begun meiosis maturation at the end of the culture period. All oocytes punctured on one day (from various mice) are pooled and distributed over the two study groups.
The oocytes cultivated in the mouse oocyte assay are further processed in this experiment. They are washed briefly 3× in a defined medium not containing FF-MAS and subsequently transferred into an IVF medium not containing FF-MAS. Then a defined number of capacitated sperms (obtained from the epididymides of a male mouse) is added and the oocytes are incubated with the sperms for approx. 4 hours in an incubator at 37° C. Following incubation the number of inseminated oocytes is counted.
1 day before the retransfer female recipient mice (foster mothers) in pre-estrus are mated with vasectomized males in order to trigger pseudogestation. One day later a vaginal check is performed. Animals with positive, sperm-free vaginal prop (successful mating) enter the study. This day is day 0 of gestation (=day 0 after the sterile copulation). Approx 10-15 inseminated oocytes are transferred into one tube (right) to the foster mothers on day 0 after the sterile copulation under anesthetization. The contralateral tube remains unused (check for pseudogestation). Only inseminated oocytes from the IVF experiment are used.
Retransfer is repeated until approx. 20 evaluable litters (with viable fetuses) have been obtained in all study groups (10 μM FF-MAS and one untreated control group).
The foster mothers are killed on day 17 of gestation. Uteri are removed. The number of viable and dead fetuses, the number of foster mothers, the number of pregnant foster mothers and the number of pregnant foster mothers with viable fetuses and with total fetal death, respectively, are counted.

Row | Structure (SMILES) | nuclear and cytoplasmic maturation (human oocytes) | Number of implantation sides [x ± sd] d16 (adult, cycling rat) | fertilization rate (mouse oocytes [1]) | Number of pregnant foster mothers [n] (mouse oocytes [2]; 10 μM FF-MAS in culture medium, 69 foster mothers, control 43 of 153) | Number of pregnant foster mothers [%] (mouse oocytes [2]; 10 μM FF-MAS in culture medium, % of foster mothers, control 28) | Number of pregnant foster mothers with viable fetuses [%] (mouse oocytes [2]; 10 μM FF-MAS in culture medium, % of pregnant foster mothers, control 47) | Numbers of pregnant foster mothers with total fetal death [%] (mouse oocytes [2]; 10 μM FF-MAS in culture medium, % of pregnant foster mothers, control 54) | Number of pregnant foster mothers with viable fetuses [n] (mouse oocytes [2]; 10 μM FF-MAS in culture medium, control 20) | Numbers of pregnant foster mothers with total fetal death [n] (mouse oocytes [2]; 10 μM FF-MAS in culture medium, control 23) | Number of viable fetuses [n] (mouse oocytes [2]; 10 μM FF-MAS in oocyte culture medium approx. 20 h, IVF, retransfer, foster mothers killed day 17 of gestation, 69 foster mothers, control 45 of 153)
1 | CC(C)=CCC[C@@H](C)[C@H]1CC=C2C3=C(CC[C@@]21C)[C@@]1(C)CC[C@H](O)C(C)(C)[C@@H]1CC3 [FF-MAS, 4,4-dimethyl-5a-cholesta-8,14,24-triene-3β-ol] | improvement in nuclear and cytoplasmic maturation | 15 ± 3 | increase the fertilization rate | 27 n | 40% | 78% | 22% | 21 n | 6 n | 42 n
2 | CC(C)=CCCC(C)C1CC=C2C3=C(CCC21C)C1(C)CCC(OC(=O)CCC(=O)O)C(C)(C)C1CC3 (centres unmarked) [FF-MAS-succinate] |  | 12 ± 2 |  |  |  |  |  |  |  | 
